According to patent publication US20170086736A1, “METHODS AND SYSTEMS USING NON-LABELED ANTIMETABOLITES AND ANALOGS THEREOF AS THERANOSTIC AGENTS” (The Johns Hopkins University, priority 2014, published 2017):

Key:
[1] = CEST MRI of drugs in PBS solution (in vitro phantom); type: physicochemical; settings: for offset of CEST contrast corresponding to NH2 / offset of CEST contrast corresponding to OH: PBS solution, 20 mM, pH 7.4, 37° C., B1=3.6 μT, 3 s
Description: This would of course correspond only to an mM or μM change for the drug and would not be detectable on the large MRI signal of 55 M water molecules (110 M protons). However, for every saturated proton leaving from the solute to water, an intact proton relocates from water to the solute, a process so-called chemical or proton exchange, and subsequently gets saturated again, which will be transferred to the water again in the next exchange. If the exchange rate is fast enough, this continuous process can lead to great signal amplification of the NMR signal carried by the agent, even up to thousands of times (depending on the exchange rate). This can then cause a several percentage decrease in the water signal, allowing imaging of the low-concentration agent with the sensitivity of the water signal. The percentage of water signal decrease, or CEST contrast, is traditionally described by magnetization transfer ratio asymmetry (MTRasym) defined by MTRasym=(S^−Δω−S^+Δω)/S0, where […] are the MRI signal with RF irradiation at particular offsets +Δω and −Δω respectively, and So is that acquired without RF saturation (element (d) of FIG. 1). Because having detectable exchangeable protons (at an appropriate rate at an adequate concentration) is a requirement for generating CEST MRI signal, it thus opens the possibility to detect natural biocompatible molecules by their CEST signal, potentially improving the clinical translatability.
Elements (a)-(d) of FIG. 1 show an illustration of CEST contrast (taken from reference [^1] with permission). […] However, this process is repeated continuously, leading to effect amplification of magnitude depending on the exchange rate (ksw). The CEST contrast can be quantified by a NMR spectrum element (b), a z spectrum in element (c) of frequency dependence of normalized saturated water signal Ssat/S0, with S0 the non-saturated signal) or, an MTRasym plot in element (d). Elements (e)-(f) show CEST detection of drugs through their carried exchangeable protons on NH2 (blue) and OH (red) as exemplified by araC (left) and Gem (right) in PBS solution (20 mM, pH 7.4) at 37° C. using a standard CEST MRI method (RF pulse field strength (B1)=3.6 μT and duration =3 s). […] Elements (f)-(g) of FIG. 1 show the CEST contrast of them as quantified by z-spectra and MTRasym plots respectively, showing strong CEST contrast at ˜1 and ˜2 ppm corresponding to OH and NH2 respectively, which appear partially overlapped at pH 7.4 but can be resolved at low saturation power.
Other drugs, including prodrugs and drug modulators, as well as the drug carriers, are intended to be included within the general scope of this invention. Many of them have exchangeable protons such as OH, NH and NH2 (FIG. 1). Thus, in one embodiment, the water exchangeable proton corresponds to at least one of an OH, NH2 or NH group. The water-exchangeable proton can include at least one of an OH, NH2 or NH group. Other antitumor categories and the biochemical drug modulators (a non-toxic agent that can enhance the effect of drugs when used together, but has no effect when used alone) as listed in Table 1 are also intended to be within the scope of the current invention.

[2] = patients, repetitive infusions, single dose 3 g/m^2 over three hours, up to eight doses; cited from earlier work
[3] = single dose of 800 mg/kg (i.p.); cited from earlier work
[4] = in vivo; cited from earlier work

SMILES	offset of CEST contrast corresponding to NH2 [1] [ppm]	offset of CEST contrast corresponding to OH [1] [ppm]	cerebellar toxicity [2]	accumulation of gemcitabine in tumor [3]	maximum tolerated dose (MTD) [4] [m^g/m2]	offset at which the maximum CEST signal could be detected ([1]; at low pH) [ppm]
Nc1ccn([C@@H]2O[C@H](CO)[C@@H](O)[C@@H]2O)c(=O)n1 [araC, Cytarabine]	~2	~1	no noticeable cerebellar toxicity			
Nc1ccn([C@@H]2O[C@H](CO)[C@@H](O)C2(F)F)c(=O)n1 [gemcitabine, Gemcitabine]	~2	~1		up to several mM	2200	3.2
